# Assay results from patent US12466834B2, “Imidazodiazepinediones and methods of use thereof” (GFB (ABC), LLC, priority 2018, dated 2025).
# Molecular target: T1, human TRPC5 (Homo sapiens, UniProt Q9UL62)
# T1 construct: expressed in transfected cells
# T1 sequence (Q9UL62 1-973): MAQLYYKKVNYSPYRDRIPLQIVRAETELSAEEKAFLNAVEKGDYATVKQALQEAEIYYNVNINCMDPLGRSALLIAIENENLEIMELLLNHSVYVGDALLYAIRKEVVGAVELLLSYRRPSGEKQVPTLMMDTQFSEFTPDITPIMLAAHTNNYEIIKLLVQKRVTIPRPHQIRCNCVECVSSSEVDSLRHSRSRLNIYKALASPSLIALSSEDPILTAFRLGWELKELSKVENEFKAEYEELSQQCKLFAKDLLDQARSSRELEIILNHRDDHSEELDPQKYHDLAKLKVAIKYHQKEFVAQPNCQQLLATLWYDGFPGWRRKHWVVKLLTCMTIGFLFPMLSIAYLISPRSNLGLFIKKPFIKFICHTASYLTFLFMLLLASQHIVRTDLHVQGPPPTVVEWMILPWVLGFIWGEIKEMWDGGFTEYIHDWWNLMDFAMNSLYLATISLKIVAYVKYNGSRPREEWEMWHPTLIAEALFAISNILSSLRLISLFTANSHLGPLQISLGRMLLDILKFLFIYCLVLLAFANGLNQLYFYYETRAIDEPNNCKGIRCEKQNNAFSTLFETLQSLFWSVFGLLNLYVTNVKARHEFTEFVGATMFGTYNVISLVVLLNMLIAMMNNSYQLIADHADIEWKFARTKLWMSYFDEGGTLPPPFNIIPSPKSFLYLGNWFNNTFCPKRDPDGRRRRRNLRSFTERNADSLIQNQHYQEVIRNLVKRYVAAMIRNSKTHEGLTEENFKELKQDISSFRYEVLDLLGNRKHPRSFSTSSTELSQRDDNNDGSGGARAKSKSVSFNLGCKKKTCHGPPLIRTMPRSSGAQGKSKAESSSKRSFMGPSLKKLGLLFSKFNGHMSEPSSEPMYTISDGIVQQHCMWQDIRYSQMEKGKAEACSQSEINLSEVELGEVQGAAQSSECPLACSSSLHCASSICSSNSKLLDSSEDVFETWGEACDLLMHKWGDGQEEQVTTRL
# Experiment: Automated patch clamp assay (QPatch), antagonist mode
# Assay type: cell-based
# Conditions: HEK-TREx hTRPC5 cells; channel activated with Rosiglitazone 30 μM; normalised to ML-204 block; read-out: Qpatch Potency Range
# Protocol: ICLN-1633 cells (HEK-TREx hTRPC5) expressing TRPC5 were generated as follows. Commercially available HekTrex-293 cells were seeded at 0.7×10^6 cells/well in a 1×6-well plate 24 hrs prior to transfection using 2 mL cell growth media containing no antibiotics (1× DMEM/high glucose (Hyclone #SH30022.02); 10% fetal bovine serum (Sigma) 2 mM sodium pyruvate, 10 mM HEPES). The human TRPC5 coding sequence (NM_012471 with a silent T478C mutation) was cloned into pcDNA5/TO (Invitrogen; Cat No. V103320) using hygromycin as the resistance gene and the plasmid (SEQ ID NO:1) propagated using T-Rex-293 cells (Invitrogen; Cat No. R71007) following manufacturer's directions. On day 2, 2 μg of plasmid DNA plus 6 μl of Xtreme-GENE HP reagent in Optimem (200 μl total volume) was prepared and incubated for 15 min at room temperature. This plasmid solution was then gently overlayed dropwise onto each well and the plate was gently swirled to mix complex with the media for approximately 30 seconds. Transfected cells were incubated at 37° C. in a 10% CO2 incubator for 24 hrs. The transfected cells were harvested and transferred into 2×150 mm dishes containing cell growth media with no antibiotics at 37° C.
# The next day selection was initiated to generate a stable pool by adding cell growth media containing 150 μg/mL Hygromycin and 5 μg/mL Blasticidin and cells were allowed to grow. Media with the selection agent was changed every 1-2 days as needed to remove dead cells. After 7 days, the hygromycin concentration was reduced to 75 μg/mL and cells growth was allowed to continue.
# Single clones were selected as follows. The stable pool was diluted to 10 cells/mL and seeded (100 μl/well) into 24×96 well plates (˜1 cell/well) and allowed to grow for 7 days in cell growth media. Fresh media (100 μl) was added and the cells allowed to grow for another 1-2 weeks and then stored frozen or used immediately.
# The automated electrophysiological assay was carried out at room temperature. On the day of the experiment, TRPC5 cells were cultured according to our Standard Operating Procedure. Briefly, cells were harvested using TrypLE™ Express, re-suspended in serum free medium, added to the automated platform and used within 0.5-3 hours. Internal and external physiological solutions were freshly prepared prior to the assay. The external solution contained: 145 mM NaCl, 4 mM KCl, 2 mM CaCl2, 1 mM MgCl2, 10 mM HEPES, 10 mM glucose, pH 7.4 with NaOH and 310 mOsm/L. The internal solution contained 120 mM L-aspartic acid, 120 mM CsOH·H2O, 20 mM CsCl, 2 mM MgCl2, 8.8 mM CaCl2, 10 mM EGTA, 10 mM HEPES and 2 mM Na2ATP; pH 7.2 with CsOH and 330 mOsm/L. The free internal Ca^2+ concentration was buffered to 1 μM, according to the WCabuf software. The automated electrophysiological platform QPatch 16 from Sophion (Denmark) was used to carry out the compounds profiling. The series resistance and quality of seals were continuously monitored during the experiments. Data were analyzed using Sophion QPatch assay software 5.6 (Odense). Data were normalized using the maximum activation obtained during the pre-compound agonist application as the top value (1.0) and maximum inhibition induced by ML-204 as the bottom value (0.0). IC50 values were calculated using a least squares regression algorithm (Hill equation).
# To monitor the ion currents, a voltage ramp from −100 mV to +100 mV, over 300 ms, was applied every 10 seconds, from a holding potential of −60 mV. Antagonist-mode: After recording for a minimum of 60 seconds control period, the EC60 concentration of the TRPC5 agonist, Rosiglitazone (30 μM), was applied to activate the channel. After reaching steady-state, co-application of increasing concentrations of test compound were applied followed by two applications of Rosiglitazone EC60 and a saturating concentration of the specific blocker ML-204 (100 μM).
row,IC50 [µM],Compound
1,> 30,"C[C@@H]1C(=O)N(C)c2nc(Oc3cccc(F)c3)n(Cc3ccc(Cl)cc3)c2C(=O)N1CCCO (single isomer, unassigned) [Compound 19]"
2,> 30,"O=C1c2c(nc(Oc3cccc(OC(F)(F)F)c3)n2Cc2ccc(Cl)cc2)N2CCC[C@H]2C(=O)N1CCCO (single isomer, unassigned) [Compound 22]"
3,1 to 30,"O=C1c2c(nc(Oc3cccc(OC(F)(F)F)c3)n2Cc2ccc(Cl)cc2)N2CCC[C@@H]2C(=O)N1CCCO (single isomer, unassigned) [Compound 23]"
4,1 to 30,"CN1CC(=O)N(CCCO)C(=O)c2c1nc(Oc1cccc(OC(F)(F)F)c1)n2Cc1ccc(Cl)cc1 [Compound 21, 1-[(4-chlorophenyl)methyl]-7-(3-hydroxypropyl)-4-methyl-2-[3-(trifluoromethoxy)phenoxy]-1H,4H,5H,6H,7H,8H-imidazo[4,5-e][1,4]diazepine-6,8-dione]"
